# Assay results taken from patent US10329292B2, “Substituted xanthine derivatives” (Boehringer Ingelheim International GmbH, priority 2017, dated 2019).
# “Also recorded” adds a separate entry of the source.
# Assays:
# [1] = molecular target: T1, TRPC5 channel (Homo sapiens, UniProt Q9UL62); assay: Assay A: Determination of TRPC5-inhibition (whole-cell patch clamp); assay type: cell-based; settings: LaCl3-activated current
# T1 construct: expressed in transfected cells; host or cells: HEK293 TREx (inducible expression)
# T1 sequence (Q9UL62 1-973): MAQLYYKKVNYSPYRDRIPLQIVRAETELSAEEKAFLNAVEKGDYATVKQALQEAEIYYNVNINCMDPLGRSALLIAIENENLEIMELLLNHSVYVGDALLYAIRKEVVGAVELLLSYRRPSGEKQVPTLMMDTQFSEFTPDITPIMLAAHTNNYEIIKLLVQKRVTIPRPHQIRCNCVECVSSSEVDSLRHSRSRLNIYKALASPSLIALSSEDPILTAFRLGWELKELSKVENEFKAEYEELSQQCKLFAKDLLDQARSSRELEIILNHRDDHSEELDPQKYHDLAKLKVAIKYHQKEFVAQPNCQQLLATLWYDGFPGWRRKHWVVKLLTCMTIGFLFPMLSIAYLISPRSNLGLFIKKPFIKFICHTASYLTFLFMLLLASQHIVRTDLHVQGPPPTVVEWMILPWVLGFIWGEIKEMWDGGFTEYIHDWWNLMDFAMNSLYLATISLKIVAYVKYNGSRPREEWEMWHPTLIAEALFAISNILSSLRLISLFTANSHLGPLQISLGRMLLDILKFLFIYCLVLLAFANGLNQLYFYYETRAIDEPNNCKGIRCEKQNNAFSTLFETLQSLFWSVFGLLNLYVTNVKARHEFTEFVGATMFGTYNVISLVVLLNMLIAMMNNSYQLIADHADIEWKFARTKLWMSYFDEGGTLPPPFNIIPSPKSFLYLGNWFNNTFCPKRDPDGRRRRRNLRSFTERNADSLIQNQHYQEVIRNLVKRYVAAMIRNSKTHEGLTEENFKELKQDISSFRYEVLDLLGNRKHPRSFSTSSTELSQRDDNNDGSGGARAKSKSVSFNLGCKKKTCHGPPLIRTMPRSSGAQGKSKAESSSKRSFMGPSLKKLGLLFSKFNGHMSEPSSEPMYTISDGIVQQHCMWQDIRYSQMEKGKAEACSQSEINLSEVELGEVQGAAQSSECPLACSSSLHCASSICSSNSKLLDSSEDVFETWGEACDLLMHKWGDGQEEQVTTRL
# From the text: Assay A: Determination of TRPC5-Inhibition
# Patch clamp experiments permit the detection of currents through the TRPC5 channel in a cell line. In normal whole-cell patch clamp recordings, a glass electrode is brought into contact with a single cell and a high-resistance (gigaohm) seal is established with the cell membrane. The membrane is then ruptured to achieve the whole-cell configuration, permitting control of the voltage of the cell membrane and measurement of currents flowing across the membrane using the amplifier attached to the electrode and resulting in the replacement of cytoplasm with the pipette solution. A perfusion system permits control of the extracellular solution, including the addition of blockers and activators of the current. The current can be activated by including 1.4 μM free Ca2+ in the pipette (intracellular) solution, and 80 μM LaCl3 in the extracellular solution.
# TRPC5 cells were induced 20-48 hours, removed from growth plates, and replated at low density (to attain good single-cell physical separation) on glass coverslips for measurement. In some cases, cells were grown in low density overnight on glass coverslips. Patch clamp recordings were made in the whole-cell mode with a holding potential of −40 mV. Every 5 seconds, a voltage ramp was applied from −120 to +100 mV, 400 ms in duration. Currents elicited were quantified at −80 mV and +80 mV. The internal solution consisted of 140 mM cesium aspartate, 10 mM HEDTA, 2 mM CaCl2, 2.27 mM MgCl2 and 10 mM HEPES, pH 7.2, with 1,400 nM calculated free Ca2+. The external solution consisted of 150 mM NaCl, 4.5 mM 15 KCl, 1 mM MgCl2, 2 mM CaCl2, 10 mM HEPES, 10 mM glucose, 1 mM EGTA, pH 7.4. Upon addition of LaCl3, TRPC5 current was induced only in TRPC5-expressing cells and not in parental HEK293 TREx cells. Removal of the LaCh stimulus causes most of the current to go away. Potential blockers were tested for ability to block both inward and outward currents in the continued presence of LaCl3.
# IC50 of a compound of the invention was estimated by testing the compound 500 nM. […] Compounds blocking 50% or more at 500 nM are retested at multiple concentrations, and the % block is fitted by standard equations to determine IC50 accurately, using a ⅚ point concentration-response experiment.
# [2] = molecular target: T2, hERG channel (Homo sapiens, UniProt Q12809); assay: Assay B: Determination of hERG-inhibition (patch-clamp); assay type: cell-based; settings: patch-clamp per Rast and Guth 2014
# T2 construct: expressed in transfected cells
# T2 sequence (Q12809 whole entry): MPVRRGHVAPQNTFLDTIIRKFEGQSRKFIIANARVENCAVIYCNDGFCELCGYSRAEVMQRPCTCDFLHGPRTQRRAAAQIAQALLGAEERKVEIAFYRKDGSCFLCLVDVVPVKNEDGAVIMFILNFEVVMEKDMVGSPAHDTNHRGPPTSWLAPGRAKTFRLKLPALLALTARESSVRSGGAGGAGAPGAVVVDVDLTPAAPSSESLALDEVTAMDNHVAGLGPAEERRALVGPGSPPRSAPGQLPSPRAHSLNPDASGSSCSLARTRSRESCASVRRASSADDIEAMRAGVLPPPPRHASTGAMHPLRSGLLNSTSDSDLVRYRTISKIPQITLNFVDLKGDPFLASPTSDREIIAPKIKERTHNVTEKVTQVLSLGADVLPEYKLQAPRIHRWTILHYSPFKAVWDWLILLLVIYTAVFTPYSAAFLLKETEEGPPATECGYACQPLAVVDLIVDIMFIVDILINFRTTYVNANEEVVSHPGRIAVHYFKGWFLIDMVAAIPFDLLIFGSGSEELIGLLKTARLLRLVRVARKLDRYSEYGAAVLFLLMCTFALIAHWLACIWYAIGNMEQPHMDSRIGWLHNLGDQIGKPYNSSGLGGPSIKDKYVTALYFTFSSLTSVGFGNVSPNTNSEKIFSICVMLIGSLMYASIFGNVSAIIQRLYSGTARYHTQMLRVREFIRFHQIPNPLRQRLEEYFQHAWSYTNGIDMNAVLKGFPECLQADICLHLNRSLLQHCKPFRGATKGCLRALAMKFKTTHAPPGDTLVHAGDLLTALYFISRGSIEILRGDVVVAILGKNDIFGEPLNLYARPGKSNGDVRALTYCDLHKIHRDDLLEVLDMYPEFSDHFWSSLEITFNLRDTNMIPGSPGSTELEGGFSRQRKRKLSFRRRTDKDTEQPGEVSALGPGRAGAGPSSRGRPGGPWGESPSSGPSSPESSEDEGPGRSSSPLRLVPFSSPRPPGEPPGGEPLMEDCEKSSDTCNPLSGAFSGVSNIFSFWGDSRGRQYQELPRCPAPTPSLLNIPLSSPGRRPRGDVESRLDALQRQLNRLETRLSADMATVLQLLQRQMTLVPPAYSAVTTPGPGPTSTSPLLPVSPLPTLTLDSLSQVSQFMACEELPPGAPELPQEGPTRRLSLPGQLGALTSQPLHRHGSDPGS
# Procedure: Assay B: Determination of hERG-Inhibition
# hERG-channel inhibition was determined as described in Rast G, Guth B D, Solubility assessment and on-line exposure confirmation in a patch-clamp assay for hERG (human ether-a-go-go-related gene) potassium channel inhibition, J Pharmacol Toxicol Methods. 2014 September-October; 70(2):182-7.
# [3] = compounds of the present invention, TRPC5-expressing HEK293 TREx cells
# [4] = compounds of the present invention
# [5] = compounds of WO2014/143799, TRPC5-expressing HEK293 TREx cells
"IC50 [1, 3] [µM]",SMILES,"IC50 [2, 4] [µM]",also measured
< 0.01,CC(C)n1c(=O)n(CCCO)c(=O)c2c1nc(-c1cccnc1OCC1CC1)n2Cc1cc(F)cc(F)c1 [Example 1],> 10,–
< 0.01,CC(C)n1c(=O)n(CCCO)c(=O)c2c1nc(-c1cccnc1OCC1CC1)n2Cc1ccccc1 [Example 18],> 10,–
< 0.01,CC(C)n1c(=O)n(CCCO)c(=O)c2c1nc(-c1cc(F)cnc1OCC1CC1)n2Cc1ccc(F)cc1 [Example 17],> 10,–
< 0.01,CC(C)n1c(=O)n(CC[C@@H](C)O)c(=O)c2c1nc(-c1cccnc1OCC1CC1)n2Cc1ccccc1 [Example 23],> 10,–
–,"COc1ccccc1-c1nc2c(c(=O)n(CCCO)c(=O)n2C)n1Cc1ccc(F)cc1 [Compound ID 415 in WO2014/143799, reference compound]",–,"Assay A TRPC5 inhibition [1, 5]: agonism (activation); also recorded: Agonist; IC50 ([2]; compounds of WO2014/143799): > 10 µM"
< 0.01,"CC(C)n1c(=O)n(CCCO)c(=O)c2c1nc(-c1cccnc1OC[C@@H]1CC1(F)F)n2Cc1ccc(F)cc1 (single isomer, unassigned) [Example 22]",> 10,–
–,"Cn1c(=O)n(CCCO)c(=O)c2c1nc(Oc1cccc(Cl)c1)n2Cc1cccc(Cl)c1 [Compound ID 260 in WO2014/143799, reference compound]",–,"Assay A TRPC5 inhibition [1, 5]: potent TRPC5-inhibition; IC50 [1, 5]: < 0.01 µM; Assay B hERG inhibition ([2]; compounds of WO2014/143799): low μM range; IC50 ([2]; compounds of WO2014/143799): 1.9 µM"
< 0.01,CC(C)n1c(=O)n(CCCO)c(=O)c2c1nc(-c1cccnc1OC[C@@H]1CC1(F)F)n2Cc1ccccc1 [Example 19],> 10,–
< 0.01,CC(C)n1c(=O)n(CCCO)c(=O)c2c1nc(-c1cccnc1OCC1CC1)n2Cc1ccc(F)cc1 [Example 6],> 10,–
< 0.01,CC(C)n1c(=O)n(CCCO)c(=O)c2c1nc(-c1ccc(F)nc1OCC1CC1)n2Cc1ccccc1 [Example 10],> 10,–
< 0.01,CC(C)n1c(=O)n(CCCO)c(=O)c2c1nc(-c1cccnc1OCC1CC1)n2Cc1ccc(Cl)cn1 [Example 8],> 10,–
< 0.01,CC(C)n1c(=O)n(CCCO)c(=O)c2c1nc(-c1cccnc1OCC1CC1)n2Cc1ccc(Cl)cc1 [Example 5],> 10,–
< 0.01,CC(C)n1c(=O)n(CC[C@@H](C)O)c(=O)c2c1nc(-c1cccnc1OCC1CC1)n2Cc1ccc(F)cc1 [Example 24],> 10,–
< 0.01,CC(C)n1c(=O)n(CCCO)c(=O)c2c1nc(-c1nccnc1OCC1CC1)n2Cc1ccccc1 [Example 9],> 10,–
< 0.01,CCn1c(=O)n(CCCO)c(=O)c2c1nc(-c1nccnc1OCC1CC1)n2Cc1ccccc1 [Example 11],> 10,–
< 0.01,Cc1ccc(-c2nc3c(c(=O)n(CCCO)c(=O)n3C(C)C)n2Cc2ccccc2)c(OCC2CC2)n1 [Example 13],> 10,–
< 0.01,Cn1c(=O)n(CCCO)c(=O)c2c1nc(-c1nccnc1OCC1CC1)n2Cc1ccc(Cl)cc1 [Example 12],> 10,–
< 0.01,"CC(C)n1c(=O)n(CCCO)c(=O)c2c1nc(-c1cccnc1OC[C@H]1CC1(F)F)n2Cc1ccc(F)cc1 (single isomer, unassigned) [Example 21]",> 10,–
< 0.01,Cc1nc(OCC2CC2)c(-c2nc3c(c(=O)n(CCCO)c(=O)n3C(C)C)n2Cc2ccc(F)cc2)cc1F [Example 14],5.8,–
< 0.01,CC(C)n1c(=O)n(CCCO)c(=O)c2c1nc(-c1cccnc1OCC1CC1)n2Cc1ccc(C(F)(F)F)cc1 [Example 2],8.3,–
< 0.01,Cc1ccc(Cn2c(-c3cccnc3OCC3CC3)nc3c2c(=O)n(CCCO)c(=O)n3C(C)C)cc1 [Example 4],> 10,–
< 0.01,CC(C)n1c(=O)n(CCCO)c(=O)c2c1nc(-c1cccnc1OCC1CC1)n2Cc1ccc(F)c(F)c1 [Example 3],> 10,–
< 0.01,CC(C)n1c(=O)n(CC[C@@H](C)O)c(=O)c2c1nc(-c1cccnc1OCC1CC1)n2Cc1ccc(Cl)cc1 [Example 25],7.6,–
< 0.01,CC(C)n1c(=O)n(CCCO)c(=O)c2c1nc(-c1cccnc1OC[C@H]1CC1(F)F)n2Cc1ccccc1 [Example 20],> 10,–
< 0.01,CC(C)n1c(=O)n(CCCO)c(=O)c2c1nc(-c1ccc(F)nc1OCC1CC1)n2Cc1ccc(F)cc1 [Example 7],> 10,–
< 0.01,Cc1nc(OCC2CC2)c(-c2nc3c(c(=O)n(CCCO)c(=O)n3C(C)C)n2Cc2ccccc2)cc1F [Example 15],5.8,–
< 0.01,CC(C)n1c(=O)n(CCCO)c(=O)c2c1nc(-c1cc(F)cnc1OCC1CC1)n2Cc1ccccc1 [Example 16],> 10,–
